Data published in patent publication US20120034288A1, “COMPOSITIONS AND METHODS FOR ENHANCED ATTRACTION OF NOCTUID MOTHS” (priority 2010, published 2012).

Legend:
Heliothis zea [1] = assay: Heliothis zea Test 2: field trap capture with added enhancer; assay type: in vivo; conditions: Arkansas, enhancer added to pheromone lure
Description: The percent increase in Heliothis zea captures with the addition of the soybean volatile trans-2,cis-6-nonadienal was 44%, 25%, and 54% respectively for Mississippi and Arkansas in test 1 and in Arkansas in test 2.

Heliothis zea [2] = assay: Heliothis zea Test 1: field trap capture, Hercon pheromone lure with/without enhancer; assay type: in vivo; conditions: for percent increase in Heliothis zea captures: test 1, enhancer added to pheromone lure
Protocol: 12 traps were set in Yazoo City and 10 in Monroe County, Miss. From mid June through mid September trans-2, cis-6-nonadienal, a compound reported from the volatiles of corn and soybean plants was tested. Both treatments used a commercial Heliothis zea pheromone dispenser produced by Hercon. The standard was this lure only, while the enhanced traps also contained a dispenser produced in-house that contained the enhancer.

## CC/C=C\CC/C=C/C=O [trans-2,cis-6-nonadienal, trans-2, cis-6-nonadienal]
Heliothis zea [1]
  percent increase in Heliothis zea captures: 54%
Heliothis zea [2]; Arkansas
  percent increase in Heliothis zea captures: 25%
Heliothis zea [2]; Mississippi
  percent increase in Heliothis zea captures: 44%
Heliothis zea [2]; statement in words
  function as an enhancer for attracting H. zea: functioned as an enhancer
